Read-outs that look alike come from different tables or passages of the source.
Experiments:
DCN1 protein = DCN1 protein (Homo sapiens (Human), UniProt Q96GG9); assay: Intact Protein MS Analysis with the RapidFire-TOF System (covalent adduct formation); format: binding; settings: MS Emax; 400 nM DCN1, 3 hours at room temperature
Procedure, shortened: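 Tag-cleaved human DCN1 (400 nM) expressed in E. coli, in 25 mM Tris-HCl, 200 mM NaCl, 1 mM DTT, was incubated with 11 compound concentrations for 3 h at room temperature and quenched with 0.2% formic acid. Intact-protein Q-TOF MS with deconvolution detected the compound adduct mass.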

[1] = tested on: Cullin-3 (CUL3) neddylation; assay: AlphaLISA assay for Cullin-3 (CUL3) neddylation in TF 1 cells; format: cell-based; settings: Homo sapiens, TF-1, 3 h, 3 hours treatment
Procedure, shortened: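 TF 1 cells in unsupplemented IMDM treated with compound concentrations for 3 h, then lysed. CUL3 neddylation detected by AlphaLISA (biotinylated anti-NEDD8, anti-CUL3 acceptor beads overnight, streptavidin donor beads 1 h); normalized to vehicle (0%) and 1 μM DI-1548 (100%), IC50 from Hill fits.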

[2] = molecular target: DCN1 (DCUND1) protein PONY domain (Homo sapiens (Human), UniProt Q96GG9); assay: TR-FRET assay, DCN1 binding with FAM-labeled probe
Procedure, shortened: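 Tb-DCN1 PONY domain (E. coli, biotin/streptavidin-Tb); FAM-labelled non-covalent inhibitor probe; TritonX buffer, 200 mM NaCl; 5 nM DCN1 + 20 nM probe or 0.31 nM DCN1 + 900 nM total probe; 0.1% DMSO; TR-FRET read 1, 5, 24 hrs.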

[3] = tested on: fetal hemoglobin gene HBG1; assay: HBG1 Nanostring Assay in CD34+ HSPC erythroid differentiation culture; format: cell-based, human; settings: for EC50: Homo sapiens, 240 h, HBG1 induction, Day10 of erythroid differentiation; for Nanostring Ymax obs (%): relative to a control compound (C1)
Procedure, shortened: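 CD34+ HSPCs were dosed from day −2 (0.1% DMSO) through two-phase erythroid differentiation (EPO, transferrin, SCF, IL-3, insulin; IL-3 removed from day 7) at 37° C, 5% CO2. Day-10 lysates of 100K cells were hybridized at 67° C for 22 h for nCounter counting, normalized to ERCC and housekeeping controls. EC50 and Ymax were derived, with Ymax relative to a control compound.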

[4] = TR FRET IC50 1 hr (nM), 1 hr after treatment with compound
[5] = 24 hr after treatment with compound, read-out: TR FRET IC50 24 hr
[6] = read-out: TR FRET IC50 1 hr, 1 hr after treatment with compound

Sequence of DCN1 protein (Q96GG9 whole entry): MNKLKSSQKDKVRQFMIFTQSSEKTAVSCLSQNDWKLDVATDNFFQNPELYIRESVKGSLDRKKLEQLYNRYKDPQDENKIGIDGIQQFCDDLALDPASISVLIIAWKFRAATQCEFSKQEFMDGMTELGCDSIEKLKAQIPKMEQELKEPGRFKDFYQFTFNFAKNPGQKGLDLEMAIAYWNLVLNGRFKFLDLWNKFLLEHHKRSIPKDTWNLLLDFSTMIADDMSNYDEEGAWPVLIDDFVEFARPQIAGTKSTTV
Sequence of DCN1 (DCUND1) protein PONY domain (Q96GG9 60-248): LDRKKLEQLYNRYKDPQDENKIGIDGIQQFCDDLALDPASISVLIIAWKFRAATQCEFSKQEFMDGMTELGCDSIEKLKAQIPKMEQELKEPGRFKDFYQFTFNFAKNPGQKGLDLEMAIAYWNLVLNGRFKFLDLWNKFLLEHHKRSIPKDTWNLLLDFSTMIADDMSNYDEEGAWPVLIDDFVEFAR

In the case of `CCN1C(=O)[C@@H](NC(=O)c2cccc(C(F)(F)F)c2)[C@@H](c2ccc(F)cc2)c2c(NC(=O)/C=C/C(=O)OC)nn(-c3ccccc3)c21` (racemic) [Compound I-136], the “% Adduct Formation” value (DCN1 protein) is reported as “+++ (MS Emax % adduct formation greater than 80.0 and less than or equal to 100.0)”, the IC50 [1] is reported as at most 100 nM and the IC50 [2, 4] is reported as 200 to 1000 nM. For the same compound, the EC50 [3] was over 1000 nM and the “Nanostring Ymax obs (%)” value [3] was “+ (Nanostring Ymax greater than or equal to 0.0 and less than or equal to 50.0)”.
For `CCN1C(=O)[C@H](NC(=O)c2cccc(C(F)(F)F)c2)[C@@H](c2ccc(F)cc2)c2c(CNC(=O)/C(C)=C/C(=O)OC)nn(-c3ccccc3)c21` [Compound I-108], the “% Adduct Formation” value (DCN1 protein) was “+ (MS Emax % adduct formation greater than or equal to 0.0 and less than or equal to 30.0)”, the IC50 [1] was at most 100 nM and the IC50 [2, 5] was 200 to 1000 nM. The IC50 [2, 4] was 200 to 1000 nM, the EC50 [3] was over 1000 nM and the “Nanostring Ymax obs (%)” value [3] was “++ (Nanostring Ymax greater than 50.0 and less than or equal to 100.0)”.
`C=C(CC(=O)OC)C(=O)NCc1nn(-c2ccccc2)c2c1[C@H](c1ccc(F)cc1)[C@H](NC(=O)c1cccc(C(F)(F)F)c1)C(=O)N2CC` (racemic) [Compound I-103] was tested, and the “% Adduct Formation” value (DCN1 protein) was “+ (MS Emax % adduct formation greater than or equal to 0.0 and less than or equal to 30.0)”, the IC50 [1] was over 1000 nM and the IC50 [2, 5] was 200 to 1000 nM. For the same compound, the IC50 [2, 4] was 200 to 1000 nM, the EC50 [3] was 100 to 1000 nM and the “Nanostring Ymax obs (%)” value [3] was “+ (Nanostring Ymax greater than or equal to 0.0 and less than or equal to 50.0)”.
With `CC#CC(=O)Nc1nn(-c2ccccc2)c2c1[C@H](c1ccc(F)cc1)[C@H](NC(=O)c1cccc(C(F)(F)F)c1)C(=O)N2CC` (racemic) [Compound I-51] the “% Adduct Formation” value (DCN1 protein) was “+ (MS Emax % adduct formation greater than or equal to 0.0 and less than or equal to 30.0)”, the IC50 [1] was 100 to 1000 nM and the IC50 [2, 5] was 200 to 1000 nM. For the same compound, the IC50 [2, 4] was 200 to 1000 nM, the EC50 [3] was 100 to 1000 nM and the “Nanostring Ymax obs (%)” value [3] was “+++ (Nanostring Ymax greater than 100.0)”.
For `C=CS(=O)(=O)N[C@H](C)c1nn(-c2ccccc2)c2c1[C@H](c1ccc(F)cc1)[C@H](NC(=O)c1cccc(C(F)(F)F)c1)C(=O)N2CC` (mixture of isomers) [Compound I-74], the “% Adduct Formation” value (DCN1 protein) was “+++ (MS Emax % adduct formation greater than 80.0 and less than or equal to 100.0)”, the IC50 [1] was at most 100 nM and the IC50 [2, 5] was at most 200 nM. For the same compound, the IC50 [2, 6] was at most 200 nM, the EC50 [3] was 100 to 1000 nM and the “Nanostring Ymax obs (%)” value [3] was “++ (Nanostring Ymax greater than 50.0 and less than or equal to 100.0)”.
With `CCN1C(=O)[C@@H](NC(=O)c2cccc(C(F)(F)F)c2)[C@@H](C2CC2)c2c(C(=O)N3CCNC[C@@H]3C#N)nn(C3CCOCC3)c21` (single isomer, unassigned) [Compound I-371] the “% Adduct Formation” value (DCN1 protein) was “+++ (MS Emax % adduct formation greater than 80.0 and less than or equal to 100.0)”, the IC50 [1] was at most 100 nM and the IC50 [2, 5] was at most 200 nM. For the same compound, the IC50 [2, 4] was 200 to 1000 nM, the EC50 [3] was 100 to 1000 nM and the “Nanostring Ymax obs (%)” value [3] was “++ (Nanostring Ymax greater than 50.0 and less than or equal to 100.0)”.
`C=CC(=O)N[C@@H](C)c1nn(-c2ccccc2)c2c1[C@H](c1ccc(F)cc1)[C@H](NC(=O)c1cccc(C(F)(F)F)c1)C(=O)N2CC` (mixture of isomers) [Compound I-143] was tested, and the “% Adduct Formation” value (DCN1 protein) was “+ (MS Emax % adduct formation greater than or equal to 0.0 and less than or equal to 30.0)”, the IC50 [1] was over 1000 nM and the IC50 [2, 5] was 200 to 1000 nM. For the same compound, the IC50 [2, 4] was 200 to 1000 nM, the EC50 [3] was over 1000 nM and the “Nanostring Ymax obs (%)” value [3] was “+ (Nanostring Ymax greater than or equal to 0.0 and less than or equal to 50.0)”.
In the case of `CCN1C(=O)[C@@H](NC(=O)c2cccc(C(F)(F)F)c2)[C@@H](c2ccc(F)cc2)c2c(CN(C)C(=O)/C=C/C(=O)OC)nn(-c3ccccc3)c21` (racemic) [Compound I-107, methyl (˜{E})-4-[[(4˜{R},5˜{S})-7-ethyl-4-(4-fluorophenyl)-6-oxo-1-phenyl-5-[[3-(trifluoromethyl)benzoyl]amino]-4,5-dihydropyrazolo[3,4-b]pyridine-3-yl]methyl-methyl-amino]-4-oxo-but-2-enoate], the “% Adduct Formation” value (DCN1 protein) is reported as “+++ (MS Emax % adduct formation greater than 80.0 and less than or equal to 100.0)”, the IC50 [1] is reported as at most 100 nM and the IC50 [2, 5] is reported as at most 200 nM. The IC50 [2, 6] was at most 200 nM, the EC50 [3] was at most 100 nM and the “Nanostring Ymax obs (%)” value [3] was “+++ (Nanostring Ymax greater than 100.0)”.
With `C[C@@H](NC#N)c1nn(-c2ccccc2)c2c1[C@H](c1ccc(F)cc1)[C@H](NC(=O)c1cccc(C(F)(F)F)c1)C(=O)N2CCO` [Compound I-274] the “% Adduct Formation” value (DCN1 protein) was “+++ (MS Emax % adduct formation greater than 80.0 and less than or equal to 100.0)”, the IC50 [1] was at most 100 nM and the IC50 [2, 5] was at most 200 nM. The IC50 [2, 6] was at most 200 nM and the “Nanostring Ymax obs (%)” value [3] was “+ (Nanostring Ymax greater than or equal to 0.0 and less than or equal to 50.0)”.
For `CCN1C(=O)[C@@H](NC(=O)c2cccc(C(F)(F)F)c2)[C@@H](c2ccc(F)cc2)c2c(CNC(=O)C#CCN(C)C)nn(-c3ccccc3)c21` (racemic) [Compound I-19, rac-N-((4R,5R)-3-((4-(dimethylamino)but-2-ynamido)methyl)-7-ethyl-4-(4-fluorophenyl)-6-oxo-1-phenyl-4,5,6,7-tetrahydro-1H-pyrazolo[3,4-b]pyridine-5-yl)-3-(trifluoromethyl)benzamide], the “% Adduct Formation” value (DCN1 protein) was “+++ (MS Emax % adduct formation greater than 80.0 and less than or equal to 100.0)”, the IC50 [1] was at most 100 nM and the IC50 [2, 5] was at most 200 nM. The IC50 [2, 4] was at most 200 nM, the EC50 [3] was at most 100 nM and the “Nanostring Ymax obs (%)” value [3] was “+++ (Nanostring Ymax greater than 100.0)”.
For `C/C=C(\CN1CCOCC1)C(=O)NCc1nn(-c2ccccc2)c2c1[C@@H](c1ccc(F)cc1)[C@H](NC(=O)c1cccc(C(F)(F)F)c1)C(=O)N2CC` (racemic) [Compound I-27], the “% Adduct Formation” value (DCN1 protein) was “+ (MS Emax % adduct formation greater than or equal to 0.0 and less than or equal to 30.0)”, the IC50 [1] was at most 100 nM and the IC50 [2, 5] was at most 200 nM. The IC50 [2, 6] was at most 200 nM, the EC50 [3] was 100 to 1000 nM and the “Nanostring Ymax obs (%)” value [3] was “++ (Nanostring Ymax greater than 50.0 and less than or equal to 100.0)”.
`CCN1C(=O)[C@@H](NC(=O)c2cccc(C(F)(F)F)c2)[C@@H](c2ccc(F)cc2)c2c(C(=O)N3C[C@H](F)C[C@H]3C#N)nn(-c3ccccc3)c21` (mixture of isomers) [Compound I-273] was tested, and the “% Adduct Formation” value (DCN1 protein) was “+++ (MS Emax % adduct formation greater than 80.0 and less than or equal to 100.0)”, the IC50 [1] was at most 100 nM and the IC50 [2, 5] was at most 200 nM. For the same compound, the IC50 [2, 6] was at most 200 nM and the “Nanostring Ymax obs (%)” value [3] was “+++ (Nanostring Ymax greater than 100.0)”.
`CCN1C(=O)[C@@H](NC(=O)c2cccc(C(F)(F)F)c2)[C@@H](c2ccc(F)cc2)c2c(NC(=O)C3=CCCC3)nn(-c3ccccc3)c21` (racemic) [Compound I-65] was tested, and the “% Adduct Formation” value (DCN1 protein) was “+ (MS Emax % adduct formation greater than or equal to 0.0 and less than or equal to 30.0)”, the IC50 [1] was at most 100 nM and the IC50 [2, 5] was 200 to 1000 nM. For the same compound, the IC50 [2, 6] was at most 200 nM, the EC50 [3] was over 1000 nM and the “Nanostring Ymax obs (%)” value [3] was “++ (Nanostring Ymax greater than 50.0 and less than or equal to 100.0)”.
In the case of `C=C(C(=O)O)c1nn(-c2ccccc2)c2c1[C@@H](c1ccc(F)cc1)[C@@H](NC(=O)c1cccc(C(F)(F)F)c1)C(=O)N2CC` [Compound I-77, 2-((4R,5R)-7-ethyl-4-(4-fluorophenyl)-6-oxo-1-phenyl-5-(3-(trifluoromethyl)benzamido)-4,5,6,7-tetrahydro-1H-pyrazolo[3,4-b]pyridin-3-yl)acrylic acid], the “% Adduct Formation” value (DCN1 protein) is reported as “+ (MS Emax % adduct formation greater than or equal to 0.0 and less than or equal to 30.0)”, the IC50 [1] is reported as over 1000 nM and the IC50 [2, 5] is reported as 1000 to 3000 nM. For the same compound, the IC50 [2, 4] was 1000 to 3000 nM, the EC50 [3] was over 1000 nM and the “Nanostring Ymax obs (%)” value [3] was “+ (Nanostring Ymax greater than or equal to 0.0 and less than or equal to 50.0)”.
In the case of `CCN1C(=O)[C@@H](NC(=O)c2cccc(C(F)(F)F)c2)[C@@H](c2ccc(F)cc2)c2c(C(=O)N3CCCC[C@H]3C#N)nn(-c3ccccc3)c21` (mixture of isomers) [Compound I-270], the “% Adduct Formation” value (DCN1 protein) is reported as “+++ (MS Emax % adduct formation greater than 80.0 and less than or equal to 100.0)”, the IC50 [1] is reported as at most 100 nM and the IC50 [2, 5] is reported as at most 200 nM. The IC50 [2, 6] was at most 200 nM, the EC50 [3] was 100 to 1000 nM and the “Nanostring Ymax obs (%)” value [3] was “++ (Nanostring Ymax greater than 50.0 and less than or equal to 100.0)”.
With `C=C(CN1CCOCC1)C(=O)NCc1nn(-c2ccccc2)c2c1[C@@H](c1ccc(F)cc1)[C@H](NC(=O)c1cccc(C(F)(F)F)c1)C(=O)N2CC` (racemic) [Compound I-58] the “% Adduct Formation” value (DCN1 protein) was “+ (MS Emax % adduct formation greater than or equal to 0.0 and less than or equal to 30.0)”, the IC50 [1] was at most 100 nM and the IC50 [2, 5] was at most 200 nM. For the same compound, the IC50 [2, 6] was at most 200 nM, the EC50 [3] was over 1000 nM and the “Nanostring Ymax obs (%)” value [3] was “+ (Nanostring Ymax greater than or equal to 0.0 and less than or equal to 50.0)”.

From patent US20250163057A1, “DCN-1 MODULATING COMPOUNDS AND METHODS OF USE THEREOF” (Cellarity, Inc., priority 2023, published 2025)
